# Data as given in US8124587B2, “2-(aminomethyl)-5-chlorobenzylamide derivatives and their use as inhibitors of the clotting factor Xa” (The Medicines Company (Leipzig) GmbH, priority 2005, dated 2012).
# Where two headings read alike, the source gives them in different places.
# Legend:
# Format in all cases: biochemical
# Thrombin (bovine) = molecular target: T1, Thrombin (bovine) (Bos taurus, UniProt P00735); assay: Enzyme kinetic determination of Ki with chromogenic substrate, thrombin
# T1 construct: Thrombin (bovine)
# Experimental: (§1) The inhibitory effect of the inhibitors for factor Xa, thrombin and plasmin were estimated using specific synthetic chromogenic substrates. […] The inhibitor was dissolved in Tris buffer, the substrates (all Pentapharm Ltd., Basel, CH) in water. […] Three different substrate concentrations and five different inhibitor concentrations were measured in each case.
# (§2) The following enzymes and substrates were used for the measurements:
# Enzyme content: 2.5 IE/ml (in 0.9% NaCl with 1% HSA)
# Substrate: CH3SO2-D-HHT-Gly-Arg-pNA (Pefachrome tPA),
# concentration: 2, 1 and 0.5 mM; reaction time: 3 min
# Human plasmin = molecular target: T2, Human plasmin (Homo sapiens, UniProt P00747); assay: Enzyme kinetic determination of Ki with chromogenic substrate, plasmin; conditions: Tris buffer pH 8.0, 25° C., Chromozym PL
# T2 construct: Human plasmin (CHROMOGENIX, Milano, Italy); purchased CHROMOGENIX, Milano, Italy
# Experimental: as §1, §2
# Human plasmin (CHROMOGENIX, Milano, Italy)
# Substrate: Tos-Gly-Pro-Lys-pNA (Chromozym PL),
# concentration: 2, 1 and 0.67 mM; reaction time: 3 min
# Human factor Xa = molecular target: T3, Human factor Xa (Homo sapiens, UniProt P00742); assay: Enzyme kinetic determination of Ki with chromogenic substrate, factor Xa; conditions: Tris buffer pH 8.0, 25° C., Pefachrome Xa, read-out: Ki (nM) FXa
# T3 construct: Human factor Xa (Enzyme Research Lab., purchased from Haemochrom Diagnostica GmbH, Essen); purchased Enzyme Research Lab; (via Haemochrom Diagnostica GmbH, Essen)
# Experimental: as §1, §2
# Human factor Xa (Enzyme Research Lab., purchased from Haemochrom Diagnostica GmbH, Essen)
# Enzyme content: 0.67 μg/ml
# Substrate: CH3OCO-D-Cha-Gly-Arg-pNA (Pefachrome Xa),
# concentration: 4, 2 and 1 mM; reaction time: 4 min
# [1] = bovine thrombin, Tris buffer pH 8.0, 25° C., Pefachrome tPA, read-out: Ki (nM) Thrombin
# T3 sequence (P00742 235-488 limits assumed): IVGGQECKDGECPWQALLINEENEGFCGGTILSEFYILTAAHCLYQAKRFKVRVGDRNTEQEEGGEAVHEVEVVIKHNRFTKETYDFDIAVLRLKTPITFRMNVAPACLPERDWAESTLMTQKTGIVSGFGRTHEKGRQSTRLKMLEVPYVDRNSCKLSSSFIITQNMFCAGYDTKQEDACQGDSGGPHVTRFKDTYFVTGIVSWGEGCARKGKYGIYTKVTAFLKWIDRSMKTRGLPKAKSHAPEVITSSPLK
# T3 sequence (P00742 41-179 limits assumed): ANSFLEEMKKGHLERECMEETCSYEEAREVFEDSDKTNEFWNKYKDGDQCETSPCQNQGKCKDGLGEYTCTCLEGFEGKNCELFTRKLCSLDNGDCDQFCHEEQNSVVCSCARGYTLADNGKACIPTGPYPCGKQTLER
# T2 sequence (P00747 581-810 limits assumed): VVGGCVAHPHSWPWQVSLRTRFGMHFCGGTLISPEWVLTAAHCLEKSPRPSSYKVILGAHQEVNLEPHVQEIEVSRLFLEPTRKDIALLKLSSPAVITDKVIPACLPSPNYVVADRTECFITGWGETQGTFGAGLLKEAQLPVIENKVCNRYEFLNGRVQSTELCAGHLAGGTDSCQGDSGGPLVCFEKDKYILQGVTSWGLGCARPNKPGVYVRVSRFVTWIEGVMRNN
# T2 sequence (P00747 97-580 limits assumed): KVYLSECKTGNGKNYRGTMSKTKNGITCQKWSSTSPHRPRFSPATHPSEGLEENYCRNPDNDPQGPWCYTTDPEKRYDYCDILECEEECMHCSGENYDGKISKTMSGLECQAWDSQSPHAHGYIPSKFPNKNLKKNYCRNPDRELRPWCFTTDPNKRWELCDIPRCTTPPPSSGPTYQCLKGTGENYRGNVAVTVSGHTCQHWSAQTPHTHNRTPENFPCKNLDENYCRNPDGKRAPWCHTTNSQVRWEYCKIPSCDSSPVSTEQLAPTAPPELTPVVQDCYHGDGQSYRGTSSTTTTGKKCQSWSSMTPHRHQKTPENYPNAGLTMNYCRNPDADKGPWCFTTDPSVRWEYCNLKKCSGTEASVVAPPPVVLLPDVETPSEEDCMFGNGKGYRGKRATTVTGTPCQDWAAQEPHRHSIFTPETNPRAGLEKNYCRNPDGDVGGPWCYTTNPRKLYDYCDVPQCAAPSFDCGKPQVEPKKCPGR
Compound,Ki (Thrombin (bovine)) [nM],Ki (Human plasmin) [nM],Ki (Human factor Xa) [nM],Ki (Thrombin (bovine); [1]) [nM]
NCc1ccc(Cl)cc1CNC(=O)[C@H](CO)NC(=O)C(CCc1ccccn1)NS(=O)(=O)Cc1ccccc1 (stereo partly drawn) [Inhibitor 3],260,350000,,
NCc1ccc(Cl)cc1CNC(=O)CNC(=O)[C@H](O)CCc1ccccc1 [Inhibitor 8],,540000,2200,1600
C[C@H](NC(=O)[C@@H](CCc1cccc[n+]1[O-])NS(=O)(=O)Cc1ccccc1)C(=O)NCc1cc(Cl)ccc1CN [Inhibitor 10],170,85000,,
NCc1ccc(Cl)cc1CNC(=O)[C@H](CN)NC(=O)[C@@H](CCc1cccc[n+]1[O-])NS(=O)(=O)Cc1ccccc1 [Inhibitor 12],,2300,0.54,750
NCc1ccc(Cl)cc1CNC(=O)CNC(=O)C(CCc1cccc[n+]1[O-])NS(=O)(=O)Cc1ccc(CC(=O)O)cc1 (stereo not drawn) [Inhibitor 14],930,> 1e+06,,
NCc1ccc(Cl)cc1CNC(=O)CNC(=O)C(CCc1ccccn1)NS(=O)(=O)Cc1ccc(CC(=O)O)cc1 (stereo not drawn) [Inhibitor 15],,> 1e+06,0.68,140
NCc1ccc(Cl)cc1CNC(=O)[C@H](CO)NC(=O)[C@@H](CCc1cccc[n+]1[O-])NS(=O)(=O)Cc1ccc(CC(=O)O)cc1 [Inhibitor 17],,> 1e+06,0.18,540
COC(=O)Cc1ccc(CS(=O)(=O)NC(CCc2ccccn2)C(=O)N[C@@H](CO)C(=O)NCc2cc(Cl)ccc2CN)cc1 (stereo partly drawn) [Inhibitor 18],,> 1e+06,0.67,430
NCc1ccc(Cl)cc1CNC(=O)[C@H](CO)NC(=O)[C@@H](CCc1ccccn1)NS(=O)(=O)Cc1ccc(CC(=O)O)cc1 [Inhibitor 19],,100000,0.78,210
COC(=O)c1ccc(CS(=O)(=O)NC(CCc2ccccn2)C(=O)NCC(=O)NCc2cc(Cl)ccc2CN)cc1 (stereo not drawn) [Inhibitor 22],,98000,1.05,100
NCc1ccc(Cl)cc1CNC(=O)CNC(=O)C(CCc1ccccn1)NS(=O)(=O)Cc1ccc(C(=O)O)cc1 (stereo not drawn) [Inhibitor 23],,140000,11,330
COC(=O)c1ccc(CS(=O)(=O)NC(CCc2cccc[n+]2[O-])C(=O)N[C@@H](CO)C(=O)NCc2cc(Cl)ccc2CN)cc1 (stereo partly drawn) [Inhibitor 24],,160000,0.48,930
NCc1ccc(Cl)cc1CNC(=O)CNC(=O)C(CCc1ccccn1)NS(=O)(=O)Cc1cccnc1 (stereo not drawn) [Inhibitor 26],,210000,0.34,140
CC(C)OC(=O)CS(=O)(=O)NC(CCc1ccccn1)C(=O)NCC(=O)NCc1cc(Cl)ccc1CN (stereo not drawn) [Inhibitor 30],,290000,2.1,66

# Next, values leading:
Ki (Thrombin (bovine)) [nM],Ki (Human plasmin) [nM],Ki (Human factor Xa) [nM],Ki (Thrombin (bovine); [1]) [nM],Compound
170,600000,,,NCc1ccc(Cl)cc1CNC(=O)CNC(=O)[C@@H](CCc1cccc[n+]1[O-])NS(=O)(=O)Cc1ccccc1 [Inhibitor 1]
2630,280000,,,CCCS(=O)(=O)NC(CCc1cccc[n+]1[O-])C(=O)NCC(=O)NCc1cc(Cl)ccc1CN (stereo not drawn) [Inhibitor 4]
,130000,0.43,350,COC(=O)CC[C@H](NC(=O)C(CCc1cccc[n+]1[O-])NS(=O)(=O)Cc1ccccc1)C(=O)NCc1cc(Cl)ccc1CN (stereo partly drawn) [Inhibitor 5]
20500,400000,,,NCc1ccc(Cl)cc1CNC(=O)[C@H](CCC(=O)O)NC(=O)C(CCc1cccc[n+]1[O-])NS(=O)(=O)Cc1ccccc1 (stereo partly drawn) [Inhibitor 6]
0.56,8470,,,NCc1ccc(Cl)cc1CNC(=O)[C@@H]1CCCN1C(=O)[C@@H](CCc1cccc[n+]1[O-])NS(=O)(=O)Cc1ccccc1 [Inhibitor 7]
125000,> 1e+06,,,NCc1ccc(Cl)cc1CNC(=O)CNC(=O)C(CCc1cccc[n+]1[O-])NCC(=O)O (stereo not drawn) [Inhibitor 9]
,78000,0.24,180,COC(=O)CC[C@H](NC(=O)[C@@H](CCc1cccc[n+]1[O-])NS(=O)(=O)Cc1ccccc1)C(=O)NCc1cc(Cl)ccc1CN [Inhibitor 11]
1010,200000,,,COC(=O)Cc1ccc(CS(=O)(=O)NC(CCc2cccc[n+]2[O-])C(=O)NCC(=O)NCc2cc(Cl)ccc2CN)cc1 (stereo not drawn) [Inhibitor 13]
,140000,0.3,360,COC(=O)c1ccc(CS(=O)(=O)NC(CCc2cccc[n+]2[O-])C(=O)NCC(=O)NCc2cc(Cl)ccc2CN)cc1 (stereo not drawn) [Inhibitor 20]
,130000,4.1,1300,NCc1ccc(Cl)cc1CNC(=O)CNC(=O)C(CCc1cccc[n+]1[O-])NS(=O)(=O)Cc1ccc(C(=O)O)cc1 (stereo not drawn) [Inhibitor 21]
,> 1e+06,1.4,2500,NCc1ccc(Cl)cc1CNC(=O)CNC(=O)C(CCc1cccc[n+]1[O-])NS(=O)(=O)Cc1ccc[n+]([O-])c1 (stereo not drawn) [Inhibitor 25]
22,98000,,,NCc1ccc(Cl)cc1CNC(=O)[C@@H]1CCCN1C(=O)[C@@H](CCc1cccc[n+]1[O-])NS(=O)(=O)CC(=O)O [Inhibitor 27]
1600,305000,7.6,,CC(C)OC(=O)CS(=O)(=O)NC(CCc1cccc[n+]1[O-])C(=O)NCC(=O)NCc1cc(Cl)ccc1CN (stereo not drawn) [Inhibitor 28]
8300,> 1e+06,,,NCc1ccc(Cl)cc1CNC(=O)CNC(=O)C(CCc1cccc[n+]1[O-])NS(=O)(=O)CC(=O)O (stereo not drawn) [Inhibitor 29]
,80000,0.88,43,NCc1ccc(Cl)cc1CNC(=O)[C@@H]1CCCN1C(=O)C(CCc1cccc[n+]1[O-])NC(=O)C(=O)O (stereo partly drawn) [Inhibitor 31]
140,,,,NCc1ccc(Cl)cc1CNC(=O)CNC(=O)C(CCc1cccc[n+]1[O-])NC(=O)CC(=O)O (stereo not drawn) [Inhibitor 32]
,240000,0.4,,CCOC(=O)CN[C@H](CCc1cccc[n+]1[O-])C(=O)N1CCC[C@H]1C(=O)NCc1cc(Cl)ccc1CN [Inhibitor 33]
3.8,,,,CCOC(=O)CN[C@H](CCc1ccccn1)C(=O)N1CCC[C@H]1C(=O)NCc1cc(Cl)ccc1CN [Inhibitor 34]
17.2,100000,0.4,,NCc1ccc(Cl)cc1CNC(=O)[C@@H]1CCCN1C(=O)[C@@H](CCc1cccc[n+]1[O-])NCC(=O)O [Inhibitor 35]
,,1.01,,NCc1ccc(Cl)cc1CNC(=O)[C@@H]1CCCN1C(=O)[C@@H](CCc1cccc[n+]1[O-])NCC(=O)OC1CCCCC1 [Inhibitor 38]
